Measurements from article PMC12683216, “Using High‐Throughput Screening to Identify Crosslinking Peptides That Control Cell‐Mediated Matrix Degradation” (Advanced Healthcare Materials, 2025).
Where a SMILES comes first, the peptide text is derived from it. [ ]: non-standard residue; d: D form. βAla = NCCC(=O)O

What was measured:
Assay type in all cases: in vitro ADME, human
Conditions in all cases: human, 24 h, LC-MS
[1] = Soluble peptide degradation, Cells condition (LC-MS)
Method: (§1) Most in vitro protease activity assays incubate the peptides or proteins of interest with a single protease in a buffered solution. However, the kinetics of protease activity in tissues are complex and highly regulated, and both the activity^[ [37] ^] and substrate specificity^[ [38] ^] of proteases can be modulated through association with other proteins.^[ [39] ^] Most MMP‐substrate peptides are also cleaved by multiple proteases,^[ [5] ^] and within the context of biomaterials, the most important factor is typically how the combined activity of all proteases, rather than the activity of any specific protease, modifies the local microenvironment versus the activity due to any individual enzyme. We synthesized peptides identified in the TAILS proteomic screen that were present on proteins that are known to be secreted or found on the cell membrane, pooled them, and added them either to cell culture media on top of cells, the “Cells” condition, or conditioned media lacking cells, the “Media” condition (Figure 2A). The fraction of peptides remaining after 24 h in each condition was then quantified using LC‐MS. Soluble proteases should be present in both conditions, however, membrane‐type proteases should primarily be found in the samples containing cells and not the conditioned media samples. A key benefit of this approach is that it surveys the total functional proteolytic activity, including the effects of inhibitors and co‐factors, and quantifies the degradation rate of soluble peptides by the complete secretome of different cell types.
(§2) hUVECs (75000 per well) or hMSCs (36000 per well) were seeded into a 48 well plate, and 500 µL media was added to the wells. […] The peptide libraries were dissolved at a stock solution of 10 mM total peptide content. For libraries containing 38 peptides, 95 µL of the stock solution was added to each well; for libraries with 19 peptides, 47.5 µL was added to each well, and media was taken at 0 and 24 h. Add 4 µL of acetic acid to all collected media in the LC‐MS plates and store them in a −80 °C freezer to prevent further proteolytic degradation. From each sample, 10 µL of crude solution was introduced by the LC‐MS through a Thermo Scientific Vanquish LC System (Thermo Fisher Scientific), which outputted to a Thermo Scientific LTQ XL Linear Ion Trap Mass Spectrometer (Thermo Fisher Scientific). The sampled mixture was trapped on a column (ProntoSIL C18 AQ, 120 Å, 3 µm, 2.0 x 50 mm HPLC Column, PN 0502F184PS030, MAC‐MOD Analytical Inc.). The samples were loaded onto the column with a solvent containing acetonitrile/water, 5:95 (v/v) containing 1% acetic acid at a flow rate of 300 µL min^−1 and held for 1 min. The sample was then eluted from the column with a linear gradient of 5–40% Solvent B (1% acetic acid in acetonitrile) at the same flow rate for 5 min. This was followed by a 1 min ramp up to 100% Solvent B, where it was re‐equilibrated with Solvent A (1% acetic acid) to 5% solvent B over the course of 1 min and held there for 2 min. The column temperature was kept at a constant 29 °C, and the mass spectrometer was operated in positive ion mode. Using a Heated ESI, the Source Voltage was set to 4.1 kV, and the capillary temperature was 350 °C. For non‐library degradation studies, 2.5 µL of 10 mM peptide stock solution for each peptide was added.
In the MMP‐14 inhibitor study, the MMP‐14 inhibitor NSC 405 020 (Cayman Chemical Company) was dissolved in DMSO to make a 10 mM stock solution and stored in −20 °C freezer. 0.5 µL MMP‐14 inhibitor stock solution was added to each well to achieve a 10 µM final concentration.
For all degradation studies using soluble peptides, a non‐proteolytically degradable NH2‐βFβAβAβAβAβAβA‐amide (βFβA6) peptide, where βF is β‐phenylalanine and βA is β‐alanine, was added at a 50 µM concentration and used as an internal standard. Peptide degradation ratios were measured by LC‐MS and analyzed by Xcalibur. […]

[2] = Soluble peptide degradation, Media condition (cell-conditioned media, LC-MS)
Method: as §1, §2
(§3) To assess the activity of the conditioned media, the media were divided into two equal portions. One portion was used for a standard degradation study, while the other was cultured for an additional 24 h before the PanMMP and KLVADLMASAE were added. After 24 h of incubation, the media were collected for further analysis. To assess the impact of recombinant MMP‐14 on PanMMP and KLVADLMASAE, recombinant MMP‐14 (antibodies.com) was dissolved in the media at a concentration of 0.5 nM. The remaining steps followed the standard degradation study protocol. […]

[3] = as above; remark: listed apart in the source
Method: as §1, §2, §3

[4] = hMSCs in culture with fresh media (Cells condition), Figure 2B heatmap, pooled TAILS-derived soluble peptides (Ac-βAla N-terminus, βAla-amide C-terminus) in media on hMSCs (36000 per well, 48 well plate, 500 µL), ratio to βFβA6 internal standard, 24 h / 0 h, N = 5, read-out: Fraction of peptide remaining at 24 hours: hMSC Cells
[5] = Figure 2B heatmap, pooled TAILS-derived soluble peptides in 24 h hMSC-conditioned media without cells, ratio to βFβA6 internal standard, 24 h / 0 h, N = 5, read-out: Fraction of peptide remaining at 24 hours: hMSC Media
[6] = Figure 2B heatmap, pooled TAILS-derived soluble peptides in 24 h hUVEC-conditioned media without cells, ratio to βFβA6 internal standard, 24 h / 0 h, N = 5, read-out: Fraction of peptide remaining at 24 hours: hUVEC Media
[7] = hMSCs in culture with fresh media (Cells condition), Figure 3B heatmap, split-and-pool libraries KLVADX1X2ASAE (19 or 38 peptides per library) in media on hMSCs, ratio to βFβA6, N = 2, read-out: Fraction of peptide remaining after 24 hours: hMSC Cells
[8] = hUVECs in culture with fresh media (Cells condition), Figure 3B heatmap, split-and-pool libraries KLVADX1X2ASAE in media on hUVECs, ratio to βFβA6, N = 2, read-out: Fraction of peptide remaining after 24 hours: hUVEC Cells
[9] = hMSC-conditioned media without cells (Media condition), Figure 3B heatmap, split-and-pool libraries KLVADX1X2ASAE in hMSC-conditioned media without cells, ratio to βFβA6, N = 2, read-out: Fraction of peptide remaining after 24 hours: hMSC Media
[10] = hUVEC-conditioned media without cells (Media condition), Figure 3B heatmap, split-and-pool libraries KLVADX1X2ASAE in hUVEC-conditioned media without cells, ratio to βFβA6, N = 2, read-out: Fraction of peptide remaining after 24 hours: hUVEC Media
[11] = hUVECs in culture with fresh media (Cells condition), Figure 2B heatmap, pooled TAILS-derived soluble peptides in media on hUVECs (75000 per well, 48 well plate, 500 µL), ratio to βFβA6 internal standard, 24 h / 0 h, N = 5, read-out: Fraction of peptide remaining at 24 hours: hUVEC Cells

Structure (SMILES)	remaining at 24 h [1, 4] [%]	remaining at 24 h [2, 5] [%]	remaining at 24 h [3, 6] [%]	remaining at 24 h [1, 11] [%]	other results
CC(=O)NCCC(=O)N[C@@H](C)C(=O)N[C@@H](CO)C(=O)N[C@@H](C)C(=O)N1CCC[C@H]1C(=O)N[C@@H](C)C(=O)N[C@@H](CCCNC(=N)N)C(=O)N1CCC[C@H]1C(=O)N[C@@H](C)C(=O)N[C@@H](CC(C)C)C(=O)N[C@@H](CO)C(=O)NCCC(N)=O [ASAPARPALS] (Ac-[βAla]ASAPARPALS[βAla]-NH2)	88	96	94		
CC(=O)NCCC(=O)N[C@@H](CCCCN)C(=O)N[C@@H](CC(C)C)C(=O)N[C@H](C(=O)N[C@@H](C)C(=O)N[C@@H](CC(=O)O)C(=O)N[C@@H](CC(N)=O)C(=O)N1CCC[C@H]1C(=O)N[C@@H](C)C(=O)N[C@@H](CO)C(=O)N[C@@H](C)C(=O)N[C@@H](CCC(=O)O)C(=O)NCCC(N)=O)C(C)C [Asn-Pro] (Ac-[βAla]KLVADNPASAE[βAla]-NH2)					remaining at 24 h ([1]; cells or culture medium, Figure 3B heatmap, split-and-pool libraries KLVADX1X2ASAE (19 or 38 peptides per library) in media on hMSCs, ratio to βFβA6, N = 2, read-out: Fraction of peptide remaining after 24 hours: hMSC Cells): 54%; remaining at 24 h ([1]; cells or culture medium, Figure 3B heatmap, split-and-pool libraries KLVADX1X2ASAE in media on hUVECs, ratio to βFβA6, N = 2, read-out: Fraction of peptide remaining after 24 hours: hUVEC Cells): 91%; remaining at 24 h ([2]; cells or culture medium, Figure 3B heatmap, split-and-pool libraries KLVADX1X2ASAE in hMSC-conditioned media without cells, ratio to βFβA6, N = 2, read-out: Fraction of peptide remaining after 24 hours: hMSC Media): 84%; remaining at 24 h ([3]; cells or culture medium, Figure 3B heatmap, split-and-pool libraries KLVADX1X2ASAE in hUVEC-conditioned media without cells, ratio to βFβA6, N = 2, read-out: Fraction of peptide remaining after 24 hours: hUVEC Media): 98%
CC(=O)NCCC(=O)N[C@@H](CCCCN)C(=O)N[C@@H](CC(C)C)C(=O)N[C@H](C(=O)N[C@@H](C)C(=O)N[C@@H](CC(=O)O)C(=O)N[C@@H](CC(=O)O)C(=O)N[C@@H](CCC(N)=O)C(=O)N[C@@H](C)C(=O)N[C@@H](CO)C(=O)N[C@@H](C)C(=O)N[C@@H](CCC(=O)O)C(=O)NCCC(N)=O)C(C)C [Asp-Gln] (Ac-[βAla]KLVADDQASAE[βAla]-NH2)					remaining at 24 h [1, 7]: 39%; remaining at 24 h [1, 8]: 84%; remaining at 24 h [2, 9]: 75%; remaining at 24 h [3, 10]: 102%
CC[C@H](C)[C@H](NC(=O)[C@H](CCC(=O)O)NC(=O)[C@H](C)NC(=O)[C@H](CC(C)C)NC(=O)[C@H](C)NC(=O)[C@H](CC(=O)O)NC(=O)CCNC(C)=O)C(=O)N[C@@H](CC(C)C)C(=O)N[C@@H](CCC(N)=O)C(=O)N[C@@H](C)C(=O)N[C@@H](CC(N)=O)C(=O)N[C@@H](CC(=O)O)C(=O)NCCC(N)=O [DALAEILQAND] (Ac-[βAla]DALAEILQAND[βAla]-NH2)	81	90		84	
CC(=O)NCCC(=O)N[C@@H](CCC(=O)O)C(=O)N[C@@H](CCC(=O)O)C(=O)N[C@@H](CO)C(=O)N[C@@H](CO)C(=O)N[C@@H](Cc1c[nH]c2ccccc12)C(=O)NCC(=O)NCC(=O)N[C@@H](CO)C(=O)N1CCC[C@H]1C(=O)N[C@@H](CO)C(=O)N1CCC[C@H]1C(=O)N[C@H](C(=O)N[C@@H](CCCNC(=N)N)C(=O)NCCC(N)=O)C(C)C [EESSWGGSPSPVR] (Ac-[βAla]EESSWGGSPSPVR[βAla]-NH2)	89	99	102		
CC(=O)NCCC(=O)N[C@@H](CCC(=O)O)C(=O)N[C@@H](CO)C(=O)N[C@@H](CO)C(=O)N[C@@H](Cc1c[nH]cn1)C(=O)N[C@@H](CC(N)=O)C(=O)N[C@H](C(=O)N[C@@H](Cc1ccc(O)cc1)C(=O)N[C@@H](CC(C)C)C(=O)N[C@H](C(=O)N[C@@H](CCC(N)=O)C(=O)NCCC(N)=O)[C@@H](C)O)[C@@H](C)O [ESSHNTYLTQ] (Ac-[βAla]ESSHNTYLTQ[βAla]-NH2)	88	98	102	100	
CSCC[C@H](NC(=O)[C@H](CCC(=O)O)NC(=O)CNC(=O)[C@H](Cc1ccccc1)NC(=O)[C@H](CO)NC(=O)[C@H](Cc1ccc(O)cc1)NC(=O)[C@@H](NC(=O)[C@H](CCC(=O)O)NC(=O)CCNC(C)=O)C(C)C)C(=O)N1CCC[C@H]1C(=O)N[C@@H](Cc1c[nH]c2ccccc12)C(=O)NCCC(N)=O [EVYSFGEMPW] (Ac-[βAla]EVYSFGEMPW[βAla]-NH2)	22	78		70	
CC(=O)NCCC(=O)N[C@@H](CCCCN)C(=O)N[C@@H](CC(C)C)C(=O)N[C@H](C(=O)N[C@@H](C)C(=O)N[C@@H](CC(=O)O)C(=O)NCC(=O)N[C@@H](Cc1ccc(O)cc1)C(=O)N[C@@H](C)C(=O)N[C@@H](CO)C(=O)N[C@@H](C)C(=O)N[C@@H](CCC(=O)O)C(=O)NCCC(N)=O)C(C)C [Gly-Tyr] (Ac-[βAla]KLVADGYASAE[βAla]-NH2)					remaining at 24 h [1, 7]: 48%; remaining at 24 h [1, 8]: 88%; remaining at 24 h [2, 9]: 74%; remaining at 24 h [3, 10]: 100%
CC[C@H](C)[C@H](NC(=O)CCNC(C)=O)C(=O)N[C@H](C(=O)N[C@@H](CCCCN)C(=O)N[C@H](C(=O)N[C@@H](CC(=O)O)C(=O)N[C@H](C(=O)N1CCC[C@H]1C(=O)N[C@@H](CC(=O)O)C(=O)N[C@@H](CCSC)C(=O)N[C@H](C(=O)NCCC(N)=O)C(C)C)[C@@H](C)CC)[C@@H](C)O)C(C)C [IVKTDIPDMV] (Ac-[βAla]IVKTDIPDMV[βAla]-NH2)	96	101	102	106	
